One assay has as its target human IRAK4 (Homo sapiens (Human), UniProt Q9NWZ3). Briefly: IRAK4 kinase inhibition, Transcreener fluorescence polarization (ADP). It counts as biochemical.
Conditions: not given
As for the experimental part:
Compounds were assayed for inhibition of human IRAK4 and IRAK1 catalytic activity using recombinant enzyme produced from insect cells. Full-length IRAK4 protein, carrying an N-terminal His6-Tag, was obtained from Life Technologies (Carlsbad, Calif., USA). The IRAK1 construct was produced internally and was comprised of IRAK1 residues Arg194 to Ser712, preceded by an NH2-terminal His6 tag and the coding sequence for glutathione-S-transferase.
Kinase activities were assayed using the Transcreener-Fluorecescence polarization platform (BelBrook Labs, Madison, Wis., USA) that measures amounts of the reaction product, ADP.
(In general: In fluorescence polarisation assays a small probe gives low polarisation when free and higher when bound to something large.)
human IRAK4, sequence (Q9NWZ3 whole entry): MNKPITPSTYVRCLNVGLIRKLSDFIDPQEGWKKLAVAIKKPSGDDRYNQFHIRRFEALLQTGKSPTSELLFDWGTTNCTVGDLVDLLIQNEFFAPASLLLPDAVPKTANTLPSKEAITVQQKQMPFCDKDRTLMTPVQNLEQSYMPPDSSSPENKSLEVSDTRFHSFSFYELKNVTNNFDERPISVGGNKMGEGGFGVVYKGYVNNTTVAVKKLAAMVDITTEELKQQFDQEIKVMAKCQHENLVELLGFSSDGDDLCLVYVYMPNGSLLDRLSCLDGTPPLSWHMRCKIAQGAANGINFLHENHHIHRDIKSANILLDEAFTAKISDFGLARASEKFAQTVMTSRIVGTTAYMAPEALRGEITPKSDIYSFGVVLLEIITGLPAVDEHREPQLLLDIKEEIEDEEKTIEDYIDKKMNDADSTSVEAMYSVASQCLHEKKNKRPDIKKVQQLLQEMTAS
For the compound `CC1(C)Cc2cc(NC(=O)c3cnn4cccnc34)c(OC[C@@H]3C[C@H]4NCCO[C@@H]4C3)cc2O1` (single isomer, unassigned) [Example 32], the Ki stood at 720 nM.
Still for that read-out and setting: the same measure for `CC[C@H]1CC(=O)NN1C1CCN(c2cc3c(cc2NC(=O)c2cnn4cccnc24)CC(C)(C)O3)CC1` (single isomer, unassigned) [Example 18]: 6.7 nM; for `CC1(C)Cc2cc(NC(=O)c3cnn4cccnc34)c(O[C@@H]3CN(CC(N)=O)C[C@H]3N)cc2O1` (single isomer, unassigned) [Example 20]: 17 nM; for `CN1C[C@@H](COc2cc3c(cc2NC(=O)c2cnn4cccnc24)CC(C)(C)O3)CC1=O` (single isomer, unassigned) [Example 25]: 90 nM.
Same read-out and setting: the same measure for `CC1(C)Cc2cc(NC(=O)c3cnn4cccnc34)c(N3CCN(C[C@H]4CCCC(=O)N4)CC3)cc2O1` (single isomer, unassigned) [Example 7]: 10 nM; for `CC1(C)Cc2cc(NC(=O)c3cnn4cccnc34)c(OC[C@@H]3Cc4ccccc4[C@@H]3N)cc2O1` (single isomer, unassigned) [Example 29]: 780 nM.

Staying with this assay, now noted: recombinant full-length His6-IRAK4 1.25 nM; 125 uM ATP; 125 uM peptide; 90 min; ATP Km 642 uM; read-out: IRAK4 Ki.
Take `Cn1cc(Oc2cc3c(cc2NC(=O)c2cnn4cccnc24)CN(C[C@@H](F)C(C)(C)O)C3=O)cn1` [Example 89, (R)-N-(2-(2-Fluoro-3-hydroxy-3-methylbutyl)-6-((1-methyl-1H-pyrazol-4-yl)oxy)-1-oxoisoindolin-5-yl)pyrazolo[1,5-a]pyrimidine-3-carboxamide]: the Ki turned out to be 1.3 nM.
For the compound `CC(C)(O)[C@H](F)CN1Cc2cc(NC(=O)c3cnn4cccnc34)c(OC3CCOCC3)cc2C1=O` [Example 85, (R)-N-(2-(2-Fluoro-3-hydroxy-3-methylbutyl)-1-oxo-6-((tetrahydro-2H-pyran-4-yl)oxy)isoindolin-5-yl)pyrazolo[1,5-a]pyrimidine-3-carboxamide], the Ki was determined as 1.8 nM.
As for `CC(C)(C)Oc1cc2c(cc1NC(=O)c1cnn3cccnc13)CN(C[C@@H](F)C(C)(C)O)C2=O` [Example 90, (R)-N-(6-(tert-Butoxy)-2-(2-fluoro-3-hydroxy-3-methylbutyl)-1-oxoisoindolin-5-yl)pyrazolo[1,5-a]pyrimidine-3-carboxamide], the Ki worked out at 0.61 nM.
For `COc1cc2c(cc1NC(=O)c1cnn3ccc(N[C@@H]4CCCNC4)nc13)CC(C)(C)O2` [Example 40, (R)-N-(6-Methoxy-2,2-dimethyl-2,3-dihydrobenzofuran-5-yl)-5-(piperidin-3-ylamino)pyrazolo[1,5-a]pyrimidine-3-carboxamide], the Ki worked out at 0.87 nM.
On to `O=C(Nc1cc2c(cc1N1CCOCC1)C(=O)N(CC1CCOCC1)C2)c1cnn2cccnc12` [Example 92, N-[6-Morpholino-1-oxo-2-(tetrahydropyran-4-ylmethyl)isoindolin-5-yl]pyrazolo[1,5-a]pyrimidine-3-carboxamide], for which the inhibitory constant (Ki) is 3.7 nM.
For `CC(C)(O)[C@H](F)CN1Cc2cc(NC(=O)c3cnn4cccnc34)c(OC3CCCC3)cc2C1=O` [Example 80, (R)-N-(6-(Cyclopentyloxy)-2-(2-fluoro-3-hydroxy-3-methylbutyl)-1-oxoisoindolin-5-yl)pyrazolo[1,5-a]pyrimidine-3-carboxamide], the Ki is 0.97 nM.
The same measure, in the same setting: then `O=C(Nc1cc2c(cc1N1CCOCC1)N(CCCO)C(=O)CC2)c1cnn2cccnc12` [Example 48, N-(1-(3-Hydroxypropyl)-7-morpholino-2-oxo-1,2,3,4-tetrahydroquinolin-6-yl)pyrazolo[1,5-a]pyrimidine-3-carboxamide], with 240 nM; and `CC(C)(O)[C@H](F)CN1Cc2cc(NC(=O)c3cnn4cccnc34)c(OC3CCNCC3)cc2C1=O` [Example 70, (R)-N-(2-(2-Fluoro-3-hydroxy-3-methylbutyl)-1-oxo-6-(piperidin-4-yloxy)isoindolin-5-yl)pyrazolo[1,5-a]pyrimidine-3-carboxamide], with 0.7 nM.
For `COc1cc2c(cc1NC(=O)c1cnn3ccc(C4CCNC4=O)nc13)CC(C)(C)O2` (stereo not shown) [Example 35, N-(6-Methoxy-2,2-dimethyl-2,3-dihydrobenzofuran-5-yl)-5-(2-oxopyrrolidin-3-yl)pyrazolo[1,5-a]pyrimidine-3-carboxamide], the Ki was found to be 100 nM.
Still for that read-out and setting: then `COc1cc2c(cc1NC(=O)c1cnn3ccc(Cl)nc13)CC(C)(C)O2` [Example 21, 5-Chloro-N-(6-methoxy-2,2-dimethyl-2,3-dihydrobenzofuran-5-yl)pyrazolo[1,5-a]pyrimidine-3-carboxamide], with 110 nM; and `CC(C)(O)[C@H](F)CN1Cc2cc(NC(=O)c3cnn4cc(O)cnc34)c(N3CCOCC3)cc2C1=O` [Example 133, (R)—N-(2-(2-Fluoro-3-hydroxy-3-methylbutyl)-6-morpholino-1-oxoisoindolin-5-yl)-6-hydroxypyrazolo[1,5-a]pyrimidine-3-carboxamide], with 5.7 nM; and `CC(C)(O)[C@H](F)CN1Cc2cc(NC(=O)c3cnn4cccnc34)c(OC3CC3)cc2C1=O` [Example 77, (R)—N-(6-Cyclopropoxy-2-(2-fluoro-3-hydroxy-3-methylbutyl)-1-oxoisoindolin-5-yl)pyrazolo[1,5-a]pyrimidine-3-carboxamide], with 0.63 nM.
Still for that read-out and setting: then `COc1cc2c(cc1NC(=O)c1cnn3cccnc13)CN(C[C@@H](F)C(C)(C)O)C2=O` [Example 86, (R)-N-(2-(2-Fluoro-3-hydroxy-3-methylbutyl)-6-methoxy-1-oxoisoindolin-5-yl)pyrazolo[1,5-a]pyrimidine-3-carboxamide], with 1.3 nM; and `COc1cc2c(cc1NC(=O)c1cnn3ccc(NCCN)nc13)CC(C)(C)O2` [Example 43, 5-((2-Aminoethyl)amino)-N-(6-methoxy-2,2-dimethyl-2,3-dihydrobenzofuran-5-yl)pyrazolo[1,5-a]pyrimidine-3-carboxamide], with 3.2 nM; and `O=C(Nc1cc2c(cc1N1CCOCC1)N(CCO)C(=O)CC2)c1cnn2cccnc12` [Example 47, N-(1-(2-Hydroxyethyl)-7-morpholino-2-oxo-1,2,3,4-tetrahydroquinolin-6-yl)pyrazolo[1,5-a]pyrimidine-3-carboxamide], with 53 nM.
The same measure, in the same setting: then `CC(C)(O)[C@H](F)CN1Cc2cc(NC(=O)c3cnn4cccnc34)c(C#N)cc2C1=O` [Example 98, (R)—N-(6-Cyano-2-(2-fluoro-3-hydroxy-3-methylbutyl)-1-oxoisoindolin-5-yl)pyrazolo[1,5-a]pyrimidine-3-carboxamide], with 8.5 nM; and `CC[C@@H]1CC(=O)NN1C1CCN(c2cc3c(cc2NC(=O)c2cnn4cccnc24)CC(C)(C)O3)CC1` [Example 17, (R)-N-(6-(4-(5-Ethyl-3-oxopyrazolidin-1-yl)piperidin-1-yl)-2,2-dimethyl-2,3-dihydrobenzofuran-5-yl)pyrazolo[1,5-a]pyrimidine-3-carboxamide], with 8.4 nM.
As to `CC(C)N1CCN(c2cc3c(cc2NC(=O)c2cnn4cccnc24)CN(C[C@@H](F)C(C)(C)O)C3=O)CC1` [Example 113, (R)-N-(2-(2-Fluoro-3-hydroxy-3-methylbutyl)-6-(4-isopropylpiperazin-1-yl)-1-oxoisoindolin-5-yl)pyrazolo[1,5-a]pyrimidine-3-carboxamide], the Ki was determined as 7.5 nM.
On the same count and under the same terms, then `Cc1ccc(=O)[nH]c1CN1CCN(c2cc3c(cc2NC(=O)c2cnn4cccnc24)CC(C)(C)O3)CC1` [Example 5, N-(2,2-Dimethyl-6-(4-((3-methyl-6-oxo-1,6-dihydropyridin-2-yl)methyl)piperazin-1-yl)-2,3-dihydrobenzofuran-5-yl)pyrazolo[1,5-a]pyrimidine-3-carboxamide], with 18 nM.
Same read-out and setting: the same measure for `Cc1cnc2c(C(=O)Nc3cc4c(cc3OC(C)C)C(=O)N(C[C@@H](F)C(C)(C)O)C4)cnn2c1` [Example 81, (R)-N-(2-(2-Fluoro-3-hydroxy-3-methylbutyl)-6-isopropoxy-1-oxoisoindolin-5-yl)-6-methylpyrazolo[1,5-a]pyrimidine-3-carboxamide]: 0.42 nM.
On the same count and under the same terms, the same measure for `COc1cc2c(cc1NC(=O)c1cnn3ccc(N)nc13)CC(C)(C)O2` [Example 41, 5-amino-N-(6-Methoxy-2,2-dimethyl-2,3-dihydrobenzofuran-5-yl)pyrazolo[1,5-a]pyrimidine-3-carboxamide]: 4.6 nM; for `CC(C)(O)[C@H](F)CN1Cc2cc(NC(=O)c3cnn4cccnc34)c(N3CCN(C4COC4)CC3)cc2C1=O` [Example 105, (R)-N-(2-(2-Fluoro-3-hydroxy-3-methylbutyl)-6-(4-(oxetan-3-yl)piperazin-1-yl)-1-oxoisoindolin-5-yl)pyrazolo[1,5-a]pyrimidine-3-carboxamide]: 3.4 nM.
Regarding `CN1C[C@H](COc2cc3c(cc2NC(=O)c2cnn4cccnc24)CC(C)(C)O3)CC1=O` [Example 24, (R)-N-(2,2-Dimethyl-6-((1-methyl-5-oxopyrrolidin-3-yl)methoxy)-2,3-dihydrobenzofuran-5-yl)pyrazolo[1,5-a]pyrimidine-3-carboxamide], the Ki amounted to 160 nM.
The same measure, in the same setting: then `COc1cc2c(cc1NC(=O)c1cnn3ccc(N4CCC[C@@H](N)C4)nc13)CC(C)(C)O2` [Example 39, (R)-5-(3-Aminopiperidin-1-yl)-N-(6-methoxy-2,2-dimethyl-2,3-dihydrobenzofuran-5-yl)pyrazolo[1,5-a]pyrimidine-3-carboxamide], with 4.1 nM; and `CC(C)(O)[C@H](F)CN1Cc2cc(NC(=O)c3cnn4ccc(Cl)nc34)c(N3CCOCC3)cc2C1=O` [Example 102, (R)-5-Chloro-N-(2-(2-fluoro-3-hydroxy-3-methylbutyl)-6-morpholino-1-oxoisoindolin-5-yl)pyrazolo[1,5-a]pyrimidine-3-carboxamide], with 6.5 nM.

The term Ki denotes the equilibrium dissociation constant of an inhibitor or competing ligand from its target.

Values taken from patent publication US11034698B2, “Pyrazolo[ 1,5a]pyrimidine derivatives as IRAK4 modulators” (priority 2017, dated 2021).
